Experiments:
[1] = Locust hemolymph kinetics after injection into the hemolymph (LCMS)
Protocol: The insects may be obtained from local suppliers or bred in house. The grasshoppers were reared under crowded conditions at 28° C. and a 12:12 dark:light photocycle and fed fresh grass and bran. Before experiments the grasshoppers were fed ecologically cultivated wheat for two weeks. Animals used are adult males (in some experiments females) between two to four weeks after adult emergence. Test compounds are administrated into the hemolymph by use of a Hamilton syringe and inserting the needle between two abdominal terga or administered intraintestinal by use of a catheter or a steel probe. At various time points after administration hemolymph samples are taken for quantitative determination of drug concentration in the hemolymph. The samples are snap-frozen and stored until analyses. Drug concentration is analysed by HPLC, LC/MSMS or other methods. In studies of drug retention various organs e.g. heart, fat bodies and brain are dissected at various times after drug administration. The tissues are washed, snap-frozen and stored until analyses. At analyses the tissues are homogenized/vortexed/sonicated and centrifuged. The drug concentration in the tissues is determined as above.
(§1) 40 ul of an approximately 5 mg/ml solution of quinidine was injected into the hemolymph of Locusts (Locusta migratoria). The test compound was administered by using a Hamilton syringe. At 5, 15, 45, 120, and 360 minutes after administration (10 ul) hemolymph was collected from each locust with a calibrated capillary tube by puncturing the ventral membrane between the head and the thorax and immediately blown into a tube containing 40 ul aqua dest and 100 ul of acetonitrile. Each sample was centrifuged for 5 minutes (10 000 g at 4° C.) and 100 ul of the supernatants were transferred to new test tubes for LCMS analysis.
as §1, with “The” for “40 ul of an approximately 5 mg/ml solution of quinidine was injected into the hemolymph of Locusts (Locusta migratoria). The”, “000g” for “000 g”
as §1, with “caffeine” for “quinidine”, “000g” for “000 g”
as §1, with “The” for “40 ul of an approximately 5 mg/ml solution of quinidine was injected into the hemolymph of Locusts (Locusta migratoria). The”, “000g” for “000 g”
Mianserin was injected into the hemolymph of Locusts (Locusta migratoria). The administered volume was 40 ul (administered by using a Hamilton syringe) at a concentration of 8.8 mg/ml. At 5, 15 and 45 minutes after administration (2×20 ul) hemolymph was collected from the locusts with a calibrated capillary tube by puncturing the ventral membrane between the head and the thorax and immediately blown into a tube containing 60 ul aqua dest and 200 ul of acetonitrile.

[2] = cited from earlier work; for Volume of distribution (in words): human / vertebrate, relative statement
[3] = cited from earlier work
[4] = Locusta migratoria, in vivo, 0.4 mg per locust (approximately)
[5] = locust, after intrahemolymphic administration, comparison between test compounds
[6] = Locusta migratoria, in vivo, 0.2 mg per locust (approximately)

| SMILES | concentration at 5 min [1, 4] | concentration at 15 min [1, 4] | concentration at 45 min [1, 4] | Hemolymph elimination / clearance (in words) [1, 5] | Volume of distribution (in words) [2] | further results |
| --- | --- | --- | --- | --- | --- | --- |
| O=C1CC2(CCCC2)CC(=O)N1CCCCN1CCN(c2ncccn2)CC1 [buspirone] | 10700 ng/mL | 6500 ng/mL | 3800 ng/mL | increased elimination similar to haloperidol | – | – |
| CC(C)NCC(O)COc1cccc2ccccc12 (stereo not drawn) [propranolol] | – | – | – | – | much larger volume of distribution | Half life (in words) ([2]; human, compared to atenolol): much shorter half life |
| O=c1n(CCCN2CCN(c3cccc(Cl)c3)CC2)nc2ccccn12 [trazodone] | – | – | – | – | – | Hemolymph elimination / clearance (in words) ([1]; in vivo): stable for 15 minutes |
| Cn1c(=O)c2c(ncn2C)n(C)c1=O [caffeine] | 29000 ng/mL | 24000 ng/mL | 23000 ng/mL | non dose dependent hemolymph clearance | much lower volume of distribution compared to propranolol | concentration at 5 min [1, 6]: 9280 ng/mL; concentration at 15 min [1, 6]: 9010 ng/mL; concentration at 45 min [1, 6]: 8780 ng/mL; concentration at 120 min [1, 6]: 6820 ng/mL; concentration at 360 min [1, 6]: 5500 ng/mL |
| CN(C)C(=O)C(CCN1CCC(O)(c2ccc(Cl)cc2)CC1)(c1ccccc1)c1ccccc1 [loperamide] | 5600 ng/mL | 3000 ng/mL | 1700 ng/mL | – | – | Solubility (in words) [3]: less soluble |
